pKi: −log10 of the molar value.
Target: CB2 (cannabinoid receptor subtype 2) (Homo sapiens, UniProt P34972)
Type: binding

Chain of CB2 (cannabinoid receptor subtype 2) (P34972 whole entry): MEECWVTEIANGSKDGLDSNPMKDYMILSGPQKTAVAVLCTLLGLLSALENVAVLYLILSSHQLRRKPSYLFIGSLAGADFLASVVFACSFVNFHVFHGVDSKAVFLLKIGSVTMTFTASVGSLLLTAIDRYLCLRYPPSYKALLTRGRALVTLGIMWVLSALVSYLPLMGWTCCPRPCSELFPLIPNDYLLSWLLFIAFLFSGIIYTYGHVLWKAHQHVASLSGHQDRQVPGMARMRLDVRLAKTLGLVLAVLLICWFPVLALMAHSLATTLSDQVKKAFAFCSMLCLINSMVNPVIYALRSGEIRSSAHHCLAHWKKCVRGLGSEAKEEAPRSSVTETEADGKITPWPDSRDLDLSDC

Row | SMILES | pKi
1 | O=C1c2ccccc2NC(=N/N=C/c2c[nH]c3ccccc23)[C@@H]2CCCN12 [4h, (S,E)-11-[2-(3-indolylmethylene)hydrazono]-pyrrolo[2,1-c][1,4]benzodiazepine] | 5.33
2 | O=C1c2ccccc2NC(=N/N=C/c2cccs2)[C@@H]2CCCN12 [4g, (S,E)-11-[2-(2-thiophenylmethylene)hydrazono]-pyrrolo[2,1-c][1,4]benzodiazepine] | 6.31

From publication PMC7992105 (Medicinal chemistry research : an international journal for …, 2020)
